Reference: patent US12077503B2, “Substituted cyclic amides and their use as herbicides” (FMC CORPORATION, priority 2015, dated 2024)

Key:
Type in all cases: in vivo
[1] = system: ragweed (common ragweed, Ambrosia elatior); experiment: Test A preemergence
How it was run: (§1)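 Visual injury scores from 0, no effect, to 100, complete control, were assigned versus untreated controls roughly 10 d after treatment in the greenhouse. Test chemicals, formulated with surfactant in a non-phytotoxic solvent, were applied to planted seeds as a preemergence soil spray or postemergence to one- to two-leaf plants 2 to 10 cm tall, in loam–sand soil.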

[2] = system: pigweed (Amaranthus retroflexus); experiment: Test A preemergence
[3] = system: Kochia (Kochia scoparia); experiment: Test A preemergence
How it was run: as §1

[4] = system: giant foxtail (Setaria faberii); experiment: Test A preemergence
How it was run: as §1

[5] = system: barnyardgrass (Echinochloa crus-galli); experiment: Test A preemergence
How it was run: as §1

[6] = system: ryegrass, Italian (Italian ryegrass, Lolium multiflorum); experiment: Test A preemergence
How it was run: as §1

[7] = system: Galium (catchweed bedstraw, Galium aparine); experiment: Test A postemergence
How it was run: as §1

[8] = system: ragweed (common ragweed, Ambrosia elatior); experiment: Test A postemergence; conditions: for Plant response rating, Ragweed: postemergence, 0 to 100 scale (0 no effect, 100 complete control)
How it was run: as §1

[9] = system: wheat (Triticum aestivum); experiment: Test A postemergence
How it was run: as §1

[10] = system: pigweed (Amaranthus retroflexus); experiment: Test A postemergence; conditions: for Plant response rating, Pigweed: postemergence, 0 to 100 scale (0 no effect, 100 complete control)
How it was run: as §1

[11] = system: Kochia (Kochia scoparia); experiment: Test A postemergence
How it was run: as §1

[12] = system: blackgrass (Alopecurus myosuroides); experiment: Test A postemergence; conditions: for Plant response rating, Blackgrass: postemergence, 0 to 100 scale (0 no effect, 100 complete control)
How it was run: as §1

[13] = system: giant foxtail (Setaria faberii); experiment: Test A postemergence
How it was run: as §1

[14] = system: barnyardgrass (Echinochloa crus-galli); experiment: Test A postemergence
How it was run: as §1

[15] = system: corn (Zea mays); experiment: Test A postemergence
How it was run: as §1

[16] = system: ryegrass, Italian (Italian ryegrass, Lolium multiflorum); experiment: Test A postemergence
How it was run: as §1

[17] = system: sedge, umbrella (small-flower umbrella sedge, Cyperus difformis); experiment: Test B flooded paddy test; conditions: Flood, 0 to 100 scale where 0 is no effect and 100 is complete control; for Plant response rating, Sedge, Umbrella: 13 to 15 d
How it was run: (§2)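 Visual ratings (0 none to 100 complete control) are relative to untreated plants, taken 13–15 d after treatment in a greenhouse. Test material went straight into floodwater standing 3 cm above the soil, kept constant, on plants at the 2-leaf stage.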

[18] = system: ducksalad (Heteranthera limosa); experiment: Test B flooded paddy test; conditions: Flood, 0 to 100 scale where 0 is no effect and 100 is complete control; for Plant response rating, Ducksalad: 13 to 15 d
How it was run: as §2

[19] = system: barnyardgrass (Echinochloa crus-galli); experiment: Test B flooded paddy test; conditions: Flood, 0 to 100 scale where 0 is no effect and 100 is complete control; for Plant response rating, Barnyardgrass: 13 to 15 d
How it was run: as §2

[20] = system: rice (Oryra sativa); experiment: Test B flooded paddy test; conditions: Flood, 0 to 100 scale where 0 is no effect and 100 is complete control; for Plant response rating, Rice: 13 to 15 d
How it was run: as §2

[21] = 500 g ai/ha, preemergence, visual injury rating about 10 d after treatment, 0 to 100 scale (0 no effect, 100 complete control)
[22] = 125 g ai/ha, Postemergence, visual injury after approximately 10 d, 0 to 100 scale where 0 is no effect and 100 is complete control
[23] = 500 g ai/ha, postemergence, visual injury, 0 to 100 scale (0 no effect, 100 complete control), approx. 10 d
[24] = 500 g ai/ha, visual injury, approx. 10 d
[25] = 125 g ai/ha, Preemergence, visual injury after approximately 10 d, 0 to 100 scale where 0 is no effect and 100 is complete control
[26] = 500 g ai/ha, preemergence, 0 to 100 scale, 0 = no effect, 100 = complete control
[27] = 125 g ai/ha, postemergence, visual rating after approx. 10 d, 0 to 100 scale (0 no effect, 100 complete control)
[28] = 125 g ai/ha, visual rating after approx. 10 d

Cc1ccc([C@H]2CN(C)C(=O)[C@@H]2C(=O)Nc2ccccc2[S+](C)[O-])cc1Cl (single isomer, unassigned) [Compound 1016]
30: Plant response rating, Foxtail, Giant [13, 22]
90%: pest or weed control at 125 g/ha ([4]; Setaria faberi, pre-emergence, 240 h, 125 g ai/ha, Preemergence, visual injury rating after approximately 10 d, read-out: Foxtail, Giant plant response rating (0 to 100 scale, 0 is no effect, 100 is complete control)) | pest or weed control at 500 g/ha ([4]; Setaria faberi, pre-emergence, 240 h, 500 g ai/ha, preemergence, visual injury rating about 10 d after treatment, 0 to 100 scale (0 no effect, 100 complete control), read-out: Foxtail, Giant plant response rating) | pest or weed control at 125 g/ha ([5]; Echinochloa crus-galli, pre-emergence, 240 h, 125 g ai/ha, Preemergence, visual injury rating after approximately 10 d, read-out: Barnyardgrass plant response rating (0 to 100 scale, 0 is no effect, 100 is complete control)) | pest or weed control at 500 g/ha ([5]; Echinochloa crus-galli, pre-emergence, 240 h, 500 g ai/ha, preemergence, visual injury rating about 10 d after treatment, 0 to 100 scale (0 no effect, 100 complete control), read-out: Barnyardgrass plant response rating) | pest or weed control at 500 g/ha ([14]; Echinochloa crus-galli, post-emergence, 240 h, 500 g ai/ha, postemergence, visual injury, 0 to 100 scale (0 no effect, 100 complete control), approx. 10 d, read-out: Plant response rating, Barnyardgrass)
0: Ragweed plant response rating [1, 21] | Pigweed plant response rating (0 to 100 scale, 0 is no effect, 100 is complete control) ([2]; 125 g ai/ha, Preemergence, visual injury rating after approximately 10 d) | Pigweed plant response rating [2, 21] | Kochia plant response rating [3, 21] | Ryegrass, Italian plant response rating [6, 21] | Plant response rating, Galium [7, 22] | Plant response rating, Galium [7, 23] | Plant response rating, Ragweed [8, 24] | Plant response rating, Wheat [9, 22] | Plant response rating, Wheat [9, 23] | Plant response rating, Pigweed [10, 24] | Plant response rating, Kochia [11, 22] | Plant response rating, Kochia [11, 23] | Plant response rating, Blackgrass [12, 24] | Plant response rating, Corn [15, 22] | Plant response rating, Corn [15, 23] | Plant response rating, Ryegrass, Italian [16, 22] | Plant response rating, Ryegrass, Italian [16, 23] | Ducksalad plant response rating ([18]; 250 g ai/ha) | Barnyardgrass plant response rating ([19]; 250 g ai/ha)
30%: pest or weed control at 250 g/ha ([20]; Oryza sativa, 250 g ai/ha, read-out: Rice plant response rating)
80%: pest or weed control at 500 g/ha ([13]; Setaria faberi, post-emergence, 240 h, 500 g ai/ha, postemergence, visual injury, 0 to 100 scale (0 no effect, 100 complete control), approx. 10 d, read-out: Plant response rating, Foxtail, Giant)
0%: pest or weed control at 125 g/ha ([1]; Ambrosia artemisiifolia, pre-emergence, 240 h, 125 g ai/ha, Preemergence, visual injury rating after approximately 10 d, read-out: Ragweed plant response rating (0 to 100 scale, 0 is no effect, 100 is complete control)) | pest or weed control at 125 g/ha ([3]; Bassia scoparia, pre-emergence, 240 h, 125 g ai/ha, Preemergence, visual injury rating after approximately 10 d, read-out: Kochia plant response rating (0 to 100 scale, 0 is no effect, 100 is complete control)) | pest or weed control at 125 g/ha ([6]; Lolium multiflorum, pre-emergence, 240 h, 125 g ai/ha, Preemergence, visual injury rating after approximately 10 d, read-out: Ryegrass, Italian plant response rating (0 to 100 scale, 0 is no effect, 100 is complete control)) | pest or weed control at 125 g/ha ([8]; Ambrosia artemisiifolia, post-emergence, 240 h, 125 g ai/ha, Postemergence, visual injury after approximately 10 d, 0 to 100 scale where 0 is no effect and 100 is complete control, read-out: Plant response rating, Ragweed) | pest or weed control at 125 g/ha ([10]; Amaranthus retroflexus, post-emergence, 240 h, 125 g ai/ha, Postemergence, visual injury after approximately 10 d, 0 to 100 scale where 0 is no effect and 100 is complete control, read-out: Plant response rating, Pigweed) | pest or weed control at 125 g/ha ([12]; Alopecurus myosuroides, post-emergence, 240 h, 125 g ai/ha, Postemergence, visual injury after approximately 10 d, 0 to 100 scale where 0 is no effect and 100 is complete control, read-out: Plant response rating, Blackgrass) | pest or weed control at 250 g/ha ([17]; Cyperus difformis, 250 g ai/ha, read-out: Sedge, Umbrella plant response rating)
50: Plant response rating, Barnyardgrass [14, 22]

Cc1cccc(C2CN(C)C(=O)C2C(=O)Nc2ccccc2S(C)(=O)=O)c1 (stereo not drawn) [Compound 668]
40: Plant response rating, Ragweed [1, 26]
98: Plant response rating, Ducksalad ([18]; 250 g ai/ha)
60: Plant response rating, Wheat [9, 23] | Plant response rating, Blackgrass [12, 28]
90: Plant response rating, Foxtail, Giant [4, 25] | Plant response rating, Barnyardgrass [5, 25] | Plant response rating, Barnyardgrass [5, 26] | Plant response rating, Foxtail, Giant [13, 27] | Plant response rating, Foxtail, Giant [13, 23] | Plant response rating, Barnyardgrass [14, 27] | Plant response rating, Barnyardgrass [14, 23]
100: Plant response rating, Foxtail, Giant [4, 26]
70: Plant response rating, Kochia [3, 26] | Plant response rating, Galium [7, 23] | Plant response rating, Blackgrass [12, 24] | Plant response rating, Ryegrass, Italian [16, 23] | Plant response rating, Barnyardgrass ([19]; 250 g ai/ha)
80: Plant response rating, Corn [15, 23]
0: Plant response rating, Ragweed [1, 25] | Plant response rating, Ryegrass, Italian [6, 25] | Plant response rating, Ryegrass, Italian [6, 26] | Plant response rating, Ragweed [8, 28] | Plant response rating, Ragweed [8, 24] | Plant response rating, Pigweed [10, 28] | Plant response rating, Pigweed [10, 24] | Plant response rating, Ryegrass, Italian [16, 27] | Plant response rating, Sedge, Umbrella ([17]; 250 g ai/ha) | Plant response rating, Rice ([20]; 250 g ai/ha)
20: Plant response rating, Pigweed [2, 25] | Plant response rating, Kochia [3, 25] | Plant response rating, Galium [7, 27] | Plant response rating, Wheat [9, 27] | Plant response rating, Kochia [11, 27] | Plant response rating, Kochia [11, 23] | Plant response rating, Corn [15, 27]
50: Plant response rating, Pigweed [2, 26]

O=C1NCC(c2cccc(C(F)(F)F)c2)C1C(=O)Nc1ccc(F)cc1Cl (racemic) [Compound 676]
40: Plant response rating, Galium [7, 23] | Plant response rating, Blackgrass [12, 24]
80: Plant response rating, Foxtail, Giant [4, 25] | Plant response rating, Foxtail, Giant [13, 23] | Plant response rating, Barnyardgrass [14, 23] | Plant response rating, Barnyardgrass ([19]; 500 g ai/ha)
85: Plant response rating, Ducksalad ([18]; 500 g ai/ha)
50: Plant response rating, Barnyardgrass [14, 27] | Plant response rating, Corn [15, 23]
90: Plant response rating, Foxtail, Giant [4, 26] | Plant response rating, Barnyardgrass [5, 26]
15: Plant response rating, Rice ([20]; 500 g ai/ha)
0: Plant response rating, Ragweed [1, 25] | Plant response rating, Ragweed [1, 26] | Plant response rating, Pigweed [2, 25] | Plant response rating, Pigweed [2, 26] | Plant response rating, Kochia [3, 25] | Plant response rating, Kochia [3, 26] | Plant response rating, Ryegrass, Italian [6, 25] | Plant response rating, Galium [7, 27] | Plant response rating, Ragweed [8, 28] | Plant response rating, Ragweed [8, 24] | Plant response rating, Wheat [9, 27] | Plant response rating, Pigweed [10, 28] | Plant response rating, Pigweed [10, 24] | Plant response rating, Kochia [11, 27] | Plant response rating, Kochia [11, 23] | Plant response rating, Corn [15, 27] | Plant response rating, Ryegrass, Italian [16, 27] | Plant response rating, Sedge, Umbrella ([17]; 500 g ai/ha)
20: Plant response rating, Ryegrass, Italian [6, 26] | Plant response rating, Wheat [9, 23] | Plant response rating, Blackgrass [12, 28] | Plant response rating, Foxtail, Giant [13, 27] | Plant response rating, Ryegrass, Italian [16, 23]
70: Plant response rating, Barnyardgrass [5, 25]
